Results taken from patent publication US6709840B1, “Anergy associated genes” (The Board of Trustees of the Leland Stanford Junior …, priority 2000, dated 2004).

B1: IL-2: murine rIL-2 (Genzyme), 5 Units/ml during restimulation (protein, UniProt P04351 21-169, looked up)
Interleukin-2: APTSSSTSSSTAEAQQQQQQQQQQQQHLEQLLMDLQELLSRMENYRNLKLPRMLTFKFYLPKQATELKDLQCLEDELGPLRHVLDLTQSKSFQLEDAENFISNIRVTVVKLKGSDNTFECQFDDESATVVDFLRRWIAFCQSIISTSPQ

How the values were obtained:
Assay type in all cases: cell-based, murine
[1] = tested on: 11.3.7 T cells; assay: Anergy assay: proliferation on restimulation (3H-Thymidine)
Description: Anergy Assays. Resting 11.3.7 T cells were purified on a Lympholyte M (Cedarlane Labs) gradient and washed three times with 1×PBS. Costimulatory incompetent APCs, (B7 negative RT 7.7 fibroblasts), were irradiated at 3000 rads prior to use in antigen-induced anergy cultures. 6×10^6 T cells were mixed with 6×10^6 B7 negative RT7.7 APCs in 20 mls of culture media. […] For ionomycin-induced anergy, 2×10^6 11.3.7 T cells were incubated with 1.5 μM ionomycin (Calbiochem). For full activation, 1 μg/ml PMA was added to the cultures.
At selected time intervals, aliquots of both cultures were harvested, pelleted, and washed twice before adding 10 μl of anti-CD4 microbeads (Millenyl Biotech) to separate CD4+ T cells from the RT 7.7 fibroblast APCs, according to the manufacturer's protocol. As determined by flow cytometry, greater than 95% purity was routinely achieved. To test for the anergic phenotype, 50×10^4 T cells/well were then cultured with irradiated DBA/2 splenocytes and various concentrations of peptide in a 96 well plate. In selected cultures, murine rIL-2 (Genzyme) was added at 5 Units/ml during the restimulation period, to test the viability of the anergized T cells. After 48 hours of culture, the cells were pulsed for 18 hours with 3H-Thymidine, then harvested and counted.

[2] = tested on: 9.3.1-2 (MRC-OX44) mRNA in 11.3.7 T cells; assay: Real-time quantitative PCR of ddPCR clone 9.3.1-2
Description: (§1) “Real-time” Quantitative PCR. Total RNA was isolated as described above and 0.5 μg was reversed transcribed using the TaqMan reverse transcription reagent kit (PE Applied Biosystems) according to recommended protocols. Subsequently, 1 μl aliquots of cDNA (equivalent to 5 ng of input RNA) were amplified in separate reactions with primer pairs and fluorescent probe sets specific for GAPDH (to generate a standard curve to control for input cDNA amounts) and for target mRNAs identified in the differential display screen. Resting, activated and anergic RNA samples were also amplified using specific primers and a probe for IL-2. Standard cycling conditions and PCR protocols were used for the ABI PRISM 7700 Sequence Detection System (PE Applied Biosystems). […]
(§2) Using the relative standard curve method described in protocols provided by ABI, changes in target RNA expression for the different ddPCR cDNA clones and IL-2 were calculated as fold increases over resting cells. To control for input RNA amounts, the relative amount of GAPDH RNA was determined for each sample (resting, anergic, and activated) from a standard curve generated for GAPDH. […] Standard curves for both target genes and GAPDH were determined by quantitative PCR reactions using serial dilutions of known amounts of cDNA or plasmids containing relevant inserts.

[3] = tested on: 19.9.6-3 (Nurr2) mRNA in 11.3.7 T cells; assay: Real-time quantitative PCR of ddPCR clone 19.9.6-3
Description: as §1, §2

[4] = tested on: 1-4 (GRAIL) mRNA in 11.3.7 T cells; assay: Real-time quantitative PCR of ddPCR clone 1-4
Description: as §1, §2

[5] = tested on: A9.5.7-4 (cbl-b) mRNA in 11.3.7 T cells; assay: Real-time quantitative PCR of ddPCR clone A9.5.7-4
Description: as §1, §2

[6] = tested on: 6.5.2-4 (lymphotactin) mRNA in 11.3.7 T cells; assay: Real-time quantitative PCR of ddPCR clone 6.5.2-4
Description: as §1, §2

[7] = tested on: IL-2 mRNA in 11.3.7 T cells; assay: Real-time quantitative PCR of IL-2 message; settings: 4 hours ionomycin vs PMA and ionomycin (100%)
Description: as §1, §2

[8] = fold over resting T cells (1.0), GAPDH normalized
[9] = ionomycin-induced anergy (ion vs PMA/ion)

Molecule | ionomycin-induced anergy ([1]; 1.5 μM ionomycin, 6 hours incubation) | induction of functional unresponsiveness ([1]; 1.5 μM ionomycin, one hour incubation) | 9.3.1-2 mRNA expression, Anergic + ion [2, 8] [fold] | 9.3.1-2 anergic:activated ratio [2, 9] [fold] | 19.9.6-3 mRNA expression, Anergic + ion [3, 8] [fold] | 19.9.6-3 anergic:activated ratio [3, 9] [fold] | 1-4 mRNA expression, Anergic + ion [4, 8] [fold] | 1-4 anergic:activated ratio [4, 9] [fold] | A9.5.7-4 mRNA expression, Anergic + ion [5, 8] [fold] | A9.5.7-4 anergic:activated ratio [5, 9] [fold] | 6.5.2-4 mRNA expression, Anergic + ion [6, 8] [fold] | 6.5.2-4 anergic:activated ratio [6, 9] [fold] | IL-2 mRNA level relative to activated cells [7] [%] | proliferative response of anergized T cells with IL-2 added ([1]; antigen-induced anergy, rIL-2 5 Units/ml during restimulation) | unresponsiveness with IL-2 added to restimulation cultures ([1]; ionomycin-induced anergy, rIL-2 5 Units/ml during restimulation)
C[C@H](CCC(=O)O)C[C@H](C)C[C@H](C)C(=O)/C=C(\O)[C@H](C)C[C@H](C)C/C=C/[C@@H](C)[C@@H](O)[C@@H](C)[C@@H](O)C[C@@H]1CC[C@@](C)([C@H]2CC[C@@](C)([C@@H](C)O)O2)O1 [Ionomycin, ionomycin] | complete | did not induce a state of functional unresponsiveness | 10.2 | 0.71 | 21.7 | 1.1 | 4.0 | 3.3 | 11.0 | 1.4 | 153 | 0.84 | ≤ 0.5 |  | 
B1 |  |  |  |  |  |  |  |  |  |  |  |  |  | induced as strong a proliferative response in the anergized T cells as it did in the resting, control T cells | overcome
